Measured values as given in ChEMBL document CHEMBL3046079, “Synthesis, herbicidal activity, and mode of action of IR 5790” (J Agric Food Chem, 2001).
Activity calls are given as the source filed them. The rule behind the calls is not given here.

Columns and labels:
[1] = target: T1, Putative protoporphyrinogen IX oxidase (Cucumis sativus) (UniProt C6L817); test: Inhibition of protoporphyrin oxidase in Cucumis sativus (cucumber) cotyledon disc assessed as increase in extraplastidic protoporphyrin 9 accumulation at 100 uM incubated in dim light for 2 hr by HPLC analysis relative to control
T1 sequence (whole entry): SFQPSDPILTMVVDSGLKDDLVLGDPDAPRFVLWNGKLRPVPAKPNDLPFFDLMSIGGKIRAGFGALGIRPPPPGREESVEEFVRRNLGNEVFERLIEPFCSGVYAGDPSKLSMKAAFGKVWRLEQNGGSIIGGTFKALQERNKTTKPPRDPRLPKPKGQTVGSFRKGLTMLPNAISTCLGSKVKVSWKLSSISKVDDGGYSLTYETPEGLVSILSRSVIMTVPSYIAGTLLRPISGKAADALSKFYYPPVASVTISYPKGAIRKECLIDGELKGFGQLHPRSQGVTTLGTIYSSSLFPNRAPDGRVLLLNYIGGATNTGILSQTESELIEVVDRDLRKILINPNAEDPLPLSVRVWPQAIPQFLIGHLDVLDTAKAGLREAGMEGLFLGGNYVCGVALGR

[2] = target: T1, Putative protoporphyrinogen IX oxidase (Cucumis sativus); test: Inhibition of protoporphyrin oxidase in Cucumis sativus (cucumber) cotyledon disc assessed as increase in extraplastidic protoporphyrin 9 accumulation at 10 uM incubated in dim light for 2 hr by HPLC analysis relative to control
[3] = target: T1, Putative protoporphyrinogen IX oxidase (Cucumis sativus); test: Inhibition of protoporphyrin oxidase in Cucumis sativus (cucumber) cotyledon disc assessed as light-dependent membrane damage at 100 uM incubated for 20 hr in dark followed by 8 hr in presence of light measured as electrolyte leakage relative to control
[4] = target: T1, Putative protoporphyrinogen IX oxidase (Cucumis sativus); test: Inhibition of protoporphyrin oxidase in Cucumis sativus (cucumber) cotyledon disc assessed as light-dependent membrane damage at 1 uM incubated for 20 hr in dark followed by 8 hr in presence of light measured as electrolyte leakage relative to control
Zea mays = test: Phytotoxicity against Zea mays (maize) assessed as injury at 150 g/ha applied as post-emergent treatment at 15 days post-sowing measured after 15 days relative to control; assay type: organism-based; conditions: in vivo, other, 360 h
Phalaris arundinacea = test: Post-emergence herbicidal activity against Phalaris arundinacea assessed as injury at 150 g/ha applied at 15 days post-sowing measured after 15 days relative to control; assay type: functional
Sida spinosa = test: Pre-emergence herbicidal activity against Sida spinosa assessed as injury at 50 g/ha applied at 24 hr post-sowing measured after 28 days relative to control; assay type: functional
Chenopodium album = test: Pre-emergence herbicidal activity against Chenopodium album assessed as injury at 50 g/ha applied at 24 hr post-sowing measured after 28 days relative to control; assay type: functional
Capsella bursa-pastoris [5] = test: Pre-emergence herbicidal activity against Capsella bursa-pastoris assessed as injury at 50 g/ha applied at 24 hr post-sowing measured after 28 days relative to control; assay type: functional
Ammi majus [6] = test: Pre-emergence herbicidal activity against Amni maius assessed as injury at 50 g/ha applied at 24 hr post-sowing measured after 28 days relative to control; assay type: functional
Triticum aestivum = test: Phytotoxicity against Triticum aestivum (wheat) assessed as injury at 150 g/ha applied as pre-emergent treatment at 24 hr post-sowing measured after 28 days relative to control; assay type: organism-based; conditions: in vivo, other, 672 h
Oryza sativa [7] = test: Phytotoxicity against Oryza sativa (rice) assessed as injury at 150 g/ha applied as pre-emergent treatment at 24 hr post-sowing measured after 28 days relative to control; assay type: organism-based; conditions: in vivo, other, 672 h
Oryza sativa [8] = test: Phytotoxicity against Oryza sativa (rice) assessed as injury at 50 g/ha applied as pre-emergent treatment at 24 hr post-sowing measured after 28 days relative to control; assay type: organism-based; conditions: in vivo, other, 672 h
Echinochloa crus-galli = test: Pre-emergence herbicidal activity against Echinochloa crus-galli (barnyard grass) assessed as injury at 50 g/ha applied at 24 hr post-sowing measured after 28 days relative to control; assay type: functional
Avena fatua = test: Pre-emergence herbicidal activity against Avena fatua assessed as injury at 50 g/ha applied at 24 hr post-sowing measured after 28 days relative to control; assay type: functional
Capsella bursa-pastoris [9] = test: Post-emergence herbicidal activity against Capsella bursa-pastoris assessed as injury at 150 g/ha applied at 15 days post-sowing measured after 15 days relative to control; assay type: functional
Ammi majus [10] = test: Post-emergence herbicidal activity against Amni maius assessed as injury at 150 g/ha applied at 15 days post-sowing measured after 15 days relative to control; assay type: functional
Digitaria sanguinalis = test: Post-emergence herbicidal activity against Digitaria sanguinalis (hairy crabgrass) assessed as injury at 150 g/ha applied at 15 days post-sowing measured after 15 days relative to control; assay type: functional
Beta vulgaris = test: Phytotoxicity against Beta vulgaris assessed as injury at 150 g/ha applied as post-emergent treatment at 15 days post-sowing measured after 15 days relative to control; assay type: organism-based; conditions: in vivo, other, 360 h
Persicaria maculosa [11] = test: Post-emergence herbicidal activity against Persicaria maculosa assessed as injury at 5 g/ha applied at 15 days post-sowing measured after 15 days relative to control; assay type: functional
Ipomoea purpurea = test: Post-emergence herbicidal activity against Ipomoea purpurea (common morning-glory) assessed as injury at 5 g/ha applied at 15 days post-sowing measured after 15 days relative to control; assay type: functional
Calystegia sepium = test: Post-emergence herbicidal activity against Calystegia sepium assessed as injury at 5 g/ha applied at 15 days post-sowing measured after 15 days relative to control; assay type: functional
Panicum dichotomiflorum = test: Post-emergence herbicidal activity against Panicum dichotomiflorum assessed as injury at 15 g/ha applied at 15 days post-sowing measured after 15 days relative to control; assay type: functional
Alopecurus myosuroides = test: Pre-emergence herbicidal activity against Alopecurus myosuroides assessed as injury at 150 g/ha applied at 24 hr post-sowing measured after 28 days relative to control; assay type: functional
Veronica persica = test: Pre-emergence herbicidal activity against Veronica persica assessed as injury at 150 g/ha applied at 24 hr post-sowing measured after 28 days relative to control; assay type: functional
Stellaria media [12] = test: Pre-emergence herbicidal activity against Stellaria media assessed as injury at 150 g/ha applied at 24 hr post-sowing measured after 28 days relative to control; assay type: functional
Solanum nigrum = test: Pre-emergence herbicidal activity against Solanum nigrum (black nightshade) assessed as injury at 150 g/ha applied at 24 hr post-sowing measured after 28 days relative to control; assay type: functional
Persicaria maculosa [13] = test: Pre-emergence herbicidal activity against Persicaria maculosa assessed as injury at 150 g/ha applied at 24 hr post-sowing measured after 28 days relative to control; assay type: functional
Matricaria chamomilla = test: Pre-emergence herbicidal activity against Matricaria chamomilla assessed as injury at 150 g/ha applied at 24 hr post-sowing measured after 28 days relative to control; assay type: functional
Geranium dissectum = test: Pre-emergence herbicidal activity against Geranium dissectum assessed as injury at 150 g/ha applied at 24 hr post-sowing measured after 28 days relative to control; assay type: functional
Glycine max = test: Phytotoxicity against Glycine max (soybean) assessed as injury at 50 g/ha applied as post-emergent treatment at 15 days post-sowing measured after 15 days relative to control; assay type: organism-based; conditions: in vivo, other, 360 h
Stellaria media [14] = test: Post-emergence herbicidal activity against Stellaria media assessed as injury at 50 g/ha applied at 15 days post-sowing measured after 15 days relative to control; assay type: functional

Structure (SMILES): C#CCOc1cc(-n2nc(C(C)(C)C)sc2=O)c(Cl)cc1Cl
- fold change (FC) [1]: 292
- fold change (FC) [2]: 234
- inhibition [3]: 90%
- inhibition [4]: inactive
- Activity (Zea mays): 0%
- Activity (Phalaris arundinacea): 30%
- Activity (Sida spinosa): 0%
- Activity (Chenopodium album): 70%
- Activity (Capsella bursa-pastoris [5]): 70%
- Activity (Ammi majus [6]): 0%
- Activity (Triticum aestivum): 0%
- Activity (Oryza sativa [7]): 0%
- Activity (Oryza sativa [8]): 0%
- Activity (Echinochloa crus-galli): 30%
- Activity (Avena fatua): 0%
- Activity (Capsella bursa-pastoris [9]): 50%
- Activity (Ammi majus [10]): 10%
- Activity (Digitaria sanguinalis): 70%
- Activity (Beta vulgaris): 90%
- Activity (Persicaria maculosa [11]): 30%
- Activity (Ipomoea purpurea): 50%
- Activity (Calystegia sepium): 10%
- Activity (Panicum dichotomiflorum): 0%
- Activity (Alopecurus myosuroides): 70%
- Activity (Veronica persica): 50%
- Activity (Stellaria media [12]): 30%
- Activity (Solanum nigrum): 70%
- Activity (Persicaria maculosa [13]): 50%
- Activity (Matricaria chamomilla): 50%
- Activity (Geranium dissectum): 0%
- Activity (Glycine max): 10%
- Activity (Stellaria media [14]): 0%
